Data as given in ChEMBL document CHEMBL1143478, “Conformationally restricted anti-plasmodial chalcones” (Bioorg Med Chem Lett, 2005).
In brackets after ≈: the same amount, converted by molar mass.

These compounds were tested on Plasmodium falciparum (assay: In vitro antimalarial activity against Plasmodium falciparum 3D7).
Assay type: functional, organism-based

IC50	SMILES
11 µg/mL (≈ 39 µM)	COc1cccc(/C=C/C(=O)c2ccccc2C)c1OC
8.6 µg/mL (≈ 26.1 µM)	Cc1ccc(C(=O)C2=Cc3cc(Br)ccc3OC2)cc1
13.5 µg/mL (≈ 41 µM)	Cc1ccccc1C(=O)C1=Cc2cc(Br)ccc2OC1
6 µg/mL (≈ 20.1 µM)	COc1ccc(C(=O)/C=C/c2ccc(OC)cc2OC)cc1
10 µg/mL (≈ 30.2 µM)	COc1ccc(Br)cc1/C=C/C(=O)c1ccc(C)cc1
2.2 µg/mL (≈ 6.5 µM)	C=CC(C)(C)c1cc(/C=C/C(=O)c2ccc(O)cc2)c(OC)cc1O [LICOAGROCHACONE A]
4.7 µg/mL (≈ 19.9 µM)	O=C(C1=Cc2ccccc2OC1)c1ccccc1
> 100 µg/mL	COc1ccc(C(=O)C2=C(c3ccc(OC)cc3)CCC2)cc1
35 µg/mL (≈ 141 µM)	O=C(C1=C(c2ccccc2)CCC1)c1ccccc1
9.3 µg/mL (≈ 28.1 µM)	COc1ccc(Br)cc1/C=C/C(=O)c1ccccc1C
6.7 µg/mL (≈ 32.2 µM)	O=C(/C=C/c1ccccc1)c1ccccc1 [CHALCONE]
7.6 µg/mL (≈ 31.9 µM)	COc1ccccc1/C=C/C(=O)c1ccccc1
8.9 µg/mL (≈ 33.2 µM)	COc1ccc(/C=C/C(=O)c2ccc(OC)cc2)cc1 [4,4'-DIMETHOXYCHALCONE]
15.1 µg/mL (≈ 53.9 µM)	COc1cccc2c1OCC(C(=O)c1ccccc1C)=C2
13.3 µg/mL (≈ 44.9 µM)	COc1ccc(C(=O)C2=Cc3ccc(OC)cc3OC2)cc1
